Laboratory results reported in ChEMBL document CHEMBL4411300 (Eur J Med Chem, 2019).
The source made the active and inactive calls. No cut-off for these calls is given here.

Legend:
[1] = (§1) Cardiotoxicity in Balb/c mouse infected with Trypanosoma cruzi MHOM/Pe/2011/Arequipa DTU 5 trypomastigotes assessed as change in ratio of creatine kinase in muscle to brain at 20 mg/kg, po once daily for 5 consecutive days starting from day 75 post infection measured on day 81 post infection (reference value: 751 U/L); assay type: toxicity, organism-based; conditions: in vivo
[2] = tested on: Trypanosoma cruzi; assay: Trypanocidal activity against Trypanosoma cruzi IRHOD/CO/2008/SN3 DTU 1 trypomastigotes derived from infected Balb/c albino mouse after 24 hrs by resazurin dye based assay; assay type: functional, organism-based; conditions: IRHOD/CO/2008/SN3 DTU 1, 24 h
[3] = tested on: Trypanosoma cruzi; assay: Trypanocidal activity against Trypanosoma cruzi TINF/CH/1956/Tulahuen DTU 6 trypomastigotes derived from infected Balb/c albino mouse after 24 hrs by resazurin dye based assay; assay type: functional, organism-based; conditions: TINF/CH/1956/Tulahuen DTU 6, 24 h
[4] = (§2) Hepatotoxicity in Balb/c mouse infected with Trypanosoma cruzi MHOM/Pe/2011/Arequipa DTU 5 trypomastigotes assessed as decrease in ratio of serum AST to GOT level at 20 mg/kg, po once daily for 5 consecutive days starting from day 10 post infection measured on day 16 post infection relative to control; assay type: toxicity, organism-based; design: scale not given: the % may be the effect or the level left; conditions: in vivo
[5] = tested on: Trypanosoma cruzi; assay: (§3) Antitrypanosomal activity against Trypanosoma cruzi MHOM/Pe/2011/Arequipa DTU 5 trypomastigotes infected in Balb/c mouse assessed as reduction in Ig-G level in serum at 20 mg/kg, po pretreated once daily for 5 consecutive days starting from day 75 post infection followed by cyclophosphamide-induced immunosuppression on day 100 post infection every 4 days for a maximum of 3 doses measured on day 127 post infection by ELISA; assay type: functional, organism-based
[6] = as §2, with “ALT” for “AST”, “GPT” for “GOT”, “75” for “10”, “81” for “16”; assay type: toxicity, organism-based; design: scale not given: the % may be the effect or the level left; conditions: in vivo
[7] = Selectivity index, ratio of IC50 for African green monkey Vero cells to IC50 for Trypanosoma cruzi IRHOD/CO/2008/SN3 DTU 1 amastigotes infected in African green monkey Vero cells; assay type: toxicity; conditions: read-out: Ratio IC50
[8] = tested on: Trypanosoma cruzi; assay: Antitrypanosomal activity against Trypanosoma cruzi MHOM/Pe/2011/Arequipa DTU 5 epimastigotes assessed as effect on parasite glycolytic pathway by measuring increase in glycerol excretion at IC25 after 72 hrs by 1H NMR method; assay type: functional, organism-based
[9] = tested on: Trypanosoma cruzi; assay: Trypanocidal activity against Trypanosoma cruzi MHOM/Pe/2011/Arequipa DTU 5 amastigotes infected in African green monkey Vero cells assessed as infected cells at 50 uM after 72 hrs by Giemsa-staining based assay relative to control; assay type: functional
[10] = as §1, with “Hepatotoxicity” for “Cardiotoxicity”, “alkaline phosphatase level” for “ratio of creatine kinase in muscle to brain”, “127” for “81”, “149” for “751”; assay type: toxicity, organism-based; conditions: in vivo
[11] = tested on: Trypanosoma cruzi; assay: Trypanocidal activity against Trypanosoma cruzi MHOM/Pe/2011/Arequipa DTU 5 trypomastigotes derived from infected Balb/c albino mouse after 24 hrs by resazurin dye based assay; assay type: functional, organism-based; conditions: MHOM/Pe/2011/Arequipa DTU 5, 24 h
[12] = as §2, with “increase” for “decrease”, “ALT” for “AST”, “GPT” for “GOT”, “75” for “10”, “127” for “16”; assay type: toxicity, organism-based; conditions: in vivo
[13] = Cardiotoxicity in Balb/c mouse infected with Trypanosoma cruzi MHOM/Pe/2011/Arequipa DTU 5 trypomastigotes assessed as change in serum LDH level at 20 mg/kg, po once daily for 5 consecutive days starting from day 75 post infection measured on day 81 post infection (reference value: 5951 U/L); assay type: toxicity, organism-based; conditions: in vivo
[14] = Toxicity in Balb/c mouse assessed as death at 20 mg/kg, po once daily for 5 consecutive days starting from day 75 post infection; assay type: organism-based; conditions: in vivo
[15] = tested on: Trypanosoma cruzi; assay: Trypanocidal activity against Trypanosoma cruzi MHOM/Pe/2011/Arequipa DTU 5 amastigotes infected in African green monkey Vero cells assessed as reduction in infected cells after 72 hrs by Giemsa-staining based assay; assay type: functional, organism-based; conditions: MHOM/Pe/2011/Arequipa DTU 5, Vero
[16] = tested on: Trypanosoma cruzi; assay: Antitrypanosomal activity against Trypanosoma cruzi MHOM/Pe/2011/Arequipa DTU 5 epimastigotes assessed as effect on parasite glycolytic pathway by measuring decrease in pyruvate excretion at IC25 after 72 hrs by 1H NMR method; assay type: functional, organism-based
[17] = tested on: Trypanosoma cruzi; assay: Trypanocidal activity against Trypanosoma cruzi IRHOD/CO/2008/SN3 DTU 1 amastigotes infected in African green monkey Vero cells after 72 hrs by Giemsa-staining based microscopic assay; assay type: functional, organism-based; conditions: IRHOD/CO/2008/SN3 DTU 1, Vero
[18] = Selectivity index, ratio of IC50 for African green monkey Vero cells to IC50 for Trypanosoma cruzi MHOM/Pe/2011/Arequipa DTU 5 trypomastigotes derived from infected Balb/c albino mouse; assay type: toxicity; conditions: read-out: Ratio IC50
[19] = tested on: Trypanosoma cruzi; assay: Antitrypanosomal activity against Trypanosoma cruzi MHOM/Pe/2011/Arequipa DTU 5 epimastigotes assessed as effect on parasite glycolytic pathway by measuring decrease in ethanol excretion at IC25 after 72 hrs by 1H NMR method; assay type: functional; design: scale not given: the % may be the effect or the level left
[20] = tested on: Trypanosoma cruzi; assay: Trypanocidal activity against Trypanosoma cruzi MHOM/Pe/2011/Arequipa DTU 5 epimastigotes after 48 to 72 hrs by resazurin dye based assay; assay type: functional, organism-based
[21] = Selectivity index, ratio of IC50 for African green monkey Vero cells to IC50 for Trypanosoma cruzi MHOM/Pe/2011/Arequipa DTU 5 epimastigotes; assay type: toxicity; conditions: read-out: Ratio IC50
[22] = as §1, with “decrease” for “change”, “relative to control” for “(reference value: 751 U/L)”; assay type: toxicity, organism-based; design: scale not given: the % may be the effect or the level left; conditions: in vivo
[23] = tested on: Trypanosoma cruzi; assay: as §3, with “parasite-free adipose tissue” for “reduction in Ig-G level in serum”, “PCR method” for “ELISA”; assay type: functional
[24] = Hepatotoxicity in Balb/c mouse infected with Trypanosoma cruzi MHOM/Pe/2011/Arequipa DTU 5 trypomastigotes assessed as increase in alkaline phosphatase level at 20 mg/kg, po once daily for 5 consecutive days starting from day 75 post infection measured on day 127 post infection relative to control; assay type: toxicity, organism-based; conditions: in vivo
[25] = Hepatotoxicity in Balb/c mouse infected with Trypanosoma cruzi MHOM/Pe/2011/Arequipa DTU 5 trypomastigotes assessed as increase in total bilirubin level at 20 mg/kg, po once daily for 5 consecutive days starting from day 75 post infection measured on day 127 post infection relative to control; assay type: toxicity, organism-based; conditions: in vivo
[26] = tested on: Trypanosoma cruzi; assay: as §3, with “parasite-free oesophagus” for “reduction in Ig-G level in serum”, “PCR method” for “ELISA”; assay type: functional, organism-based
[27] = tested on: Trypanosoma cruzi; assay: as §3, with “parasite-free lungs” for “reduction in Ig-G level in serum”, “PCR method” for “ELISA”; assay type: functional, organism-based
[28] = Hepatotoxicity in Balb/c mouse infected with Trypanosoma cruzi MHOM/Pe/2011/Arequipa DTU 5 trypomastigotes assessed as decrease in serum ALT to GPT level at 20 mg/kg, po once daily for 5 consecutive days starting from day 10 post infection measured on day 16 post infection relative to control; assay type: toxicity, organism-based; design: scale not given: the % may be the effect or the level left; conditions: in vivo
[29] = Cardiotoxicity in Balb/c mouse infected with Trypanosoma cruzi MHOM/Pe/2011/Arequipa DTU 5 trypomastigotes assessed as decrease in ratio of creatine kinase in muscle to brain at 20 mg/kg, po once daily for 5 consecutive days starting from day 10 post infection measured on day 16 post infection by biochemical analysis relative to control; assay type: toxicity, organism-based; design: scale not given: the % may be the effect or the level left; conditions: in vivo
[30] = Hepatotoxicity in Balb/c mouse infected with Trypanosoma cruzi MHOM/Pe/2011/Arequipa DTU 5 trypomastigotes assessed as change in total bilirubin level at 20 mg/kg, po once daily for 5 consecutive days starting from day 75 post infection measured on day 127 post infection (reference value: 0.2 mg/dl); assay type: toxicity, organism-based; conditions: in vivo

SMILES	IC50 [2] [µM]	IC50 [3] [µM]	Activity [5]	Activity [6]	selectivity ratio [7]	Activity [8]	Activity [10] [U/L]	IC50 [11] [µM]	Activity [14]	IC50 [15] [µM]	Activity [16]	IC50 [17] [µM]	selectivity ratio [18]	Activity [19] [%]	IC50 [20] [µM]	selectivity ratio [21]	Activity [22]	Activity [23] [%]	further results
Cl.Cl.Cl.Cl.Cl.Cl.c1ccc2nc(CNCCN(CCNCc3ccc4ccccc4n3)CCNCc3ccc4ccccc4n3)ccc2c1	1.1	1.9	inactive	<= 10%	1020	Active	149	1.2	Non-Toxic	3.6	Active	1.6	1360	38	15.1	110	–	–	Activity [1]: 751 U/L; Activity [4]: <= 10%; Activity [9]: 0%; Activity [12]: <= 10%; Activity [13]: 6679 U/L
O=C(Cn1ccnc1[N+](=O)[O-])NCc1ccccc1 [BENZNIDAZOLE]	–	–	–	–	–	–	–	–	–	–	–	–	–	–	–	–	<= 10%	51.2	Activity [24]: <= 20%; Activity [25]: <= 20%
Cl.Cl.Cl.NCCN(CCN)CCNCc1ccc2c(c1)Cc1ccccc1-2	12.4	17.6	Active	<= 10%	89.6	Active	149	14.7	Non-Toxic	8	Active	19.7	120	31	26.6	66.3	<= 10%	16.3	Activity [26]: Active; Activity [27]: Active; Activity [28]: <= 10%; Activity [29]: <= 10%; Activity [30]: 0.2 mg/dL
